Reference: patent US20240101531A1, “PYRIDINAMINE DERIVATIVES AND THEIR USE AS POTASSIUM CHANNEL MODULATORS” (Xenon Pharmaceuticals Inc., priority 2022, published 2024)
Counter-ions that a name gives are not always drawn.

target: human KV7.2/KV7.3 (Homo sapiens (Human), UniProt O43525+O43526); experiment: Potassium flux assay (IPG-2 AM dye); type: cell-based; details: TREX HEK 293 or HEK 293 cells expressing human KV7.2/KV7.3; arithmetic mean values
How it was run: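 HEK 293 or TREX HEK 293 cells stably expressing human KV7.2/KV7.3 (tetracycline-induced where needed), loaded with IPG-2 AM, then compound for 20 min at room temperature. Flux triggered by K challenge buffer (10 mM KCl, pH 7.4), read at 530/558 nm; EC50 from 16-point 2-fold series from 30 μM, normalised to DMSO and reference modulator.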

Row | SMILES | EC50 [nM]
1 | Clc1ncc(Nc2nccc3cc(OC[C@@H]4COCCO4)ccc23)cn1 [Example 383, (S)-6-((1,4-dioxan-2-yl)methoxy)-N-(2-chloropyrimidin-5-yl)isoquinolin-1-amine] | < 1000
2 | [2H]C([2H])(Oc1ccc2c(Nc3cnc(Cl)nc3)nccc2c1)C1(F)CC1 [Example 384, N-(2-chloropyrimidin-5-yl)-6-((1-fluorocyclopropyl)methoxy-d2)isoquinolin-1-amine] | < 1000
3 | CC(Oc1ccc2c(Nc3cnc(Cl)nc3)nccc2c1)C1(C#N)CC1 (centres unmarked) [Example 385, 1-(1-((1-((2-chloropyrimidin-5-yl)amino)isoquinolin-6-yl)oxy)ethyl)cyclopropane-1-carbonitrile] | < 1000
4 | [2H]C([2H])(Oc1ccc2c(Nc3ccc(Cl)nc3)nccc2c1)c1cnn(C)c1 [Example 386, N-(6-chloropyridin-3-yl)-6-((1-methyl-1H-pyrazol-4-yl)methoxy-d2)isoquinolin-1-amine] | < 1000
5 | Clc1ccc(Nc2nccc3cc(OCCc4ncccn4)ccc23)cn1 [Example 387, N-(6-chloropyridin-3-yl)-6-(2-(pyrimidin-2-yl)ethoxy)isoquinolin-1-amine] | 1000 to 10000
6 | COc1ncc(Nc2nccc3cc(OCc4cn[nH]c4C)ccc23)cn1 [Example 388, N-(2-methoxypyrimidin-5-yl)-6-((5-methyl-1H-pyrazol-4-yl)methoxy)isoquinolin-1-amine] | < 1000
7 | Clc1ncc(Nc2nccc3cc(OCCCc4cn[nH]c4)ccc23)cn1 [Example 389, 6-(3-(1H-pyrazol-4-yl)propoxy)-N-(2-chloropyrimidin-5-yl)isoquinolin-1-amine] | < 1000
8 | Clc1ncc(Nc2nccc3cc(OCCc4cn[nH]c4)ccc23)cn1 [Example 390, 6-(2-(1H-pyrazol-4-yl)ethoxy)-N-(2-chloropyrimidin-5-yl)isoquinolin-1-amine formate] | < 1000
9 | Clc1ccc(Nc2nccc3cc(OCc4cc[nH]n4)ccc23)cn1 [Example 391, 6-((1H-pyrazol-3-yl)methoxy)-N-(6-chloropyridin-3-yl)isoquinolin-1-amine] | 1000 to 10000
10 | Cc1cc(COc2ccc3c(Nc4ccc(Cl)nc4)nccc3c2)n[nH]1 [Example 392, N-(6-chloropyridin-3-yl)-6-((5-methyl-1H-pyrazol-3-yl)methoxy)isoquinolin-1-amine] | 1000 to 10000
11 | Cc1n[nH]cc1COc1ccc2c(Nc3ccc(Cl)nc3)nccc2c1 [Example 393, N-(6-chloropyridin-3-yl)-6-((3-methyl-1H-pyrazol-4-yl)methoxy)isoquinolin-1-amine] | < 1000
12 | OC1(COc2ccc3c(Nc4ccc(Cl)nc4)nccc3c2)COC1 [Example 394, 3-(((1-((6-chloropyridin-3-yl)amino)isoquinolin-6-yl)oxy)methyl)oxetan-3-ol] | 1000 to 10000
13 | Cc1ncc(Nc2nccc3cc(OCc4cn[nH]c4)ccc23)cn1 [Example 395, 6-((1H-pyrazol-4-yl)methoxy)-N-(2-methylpyrimidin-5-yl)isoquinolin-1-amine] | 1000 to 10000
14 | Cc1ncc(Nc2nccc3cc(OCc4c[nH]nc4C)ccc23)cn1 [Example 396, 6-((3-methyl-1H-pyrazol-4-yl)methoxy)-N-(2-methylpyrimidin-5-yl)isoquinolin-1-amine] | < 1000
15 | Cn1cc(F)c(COc2ccc3c(Nc4ccc(Cl)nc4)nccc3c2)n1 [Example 397, N-(6-chloropyridin-3-yl)-6-((4-fluoro-1-methyl-1H-pyrazol-3-yl)methoxy)isoquinolin-1-amine formate] | < 1000
16 | Cc1cc2ccccc2c(Nc2ccc(Cl)nc2)n1 [Example 398, N-(6-chloropyridin-3-yl)-3-methylisoquinolin-1-amine] | ≥ 30000
17 | COc1cnc2c(Nc3ccc(Cl)nc3)nccc2c1 [Example 399, N-(6-chloropyridin-3-yl)-3-methoxy-1,7-naphthyridin-8-amine] | 1000 to 10000
18 | N#CCn1cc(COc2ccc3c(Nc4ccc(Cl)nc4)nccc3c2)cn1 [Example 400, 2-(4-(((1-((6-chloropyridin-3-yl)amino)isoquinolin-6-yl)oxy)methyl)-1H-pyrazol-1-yl)acetonitrile] | < 1000
19 | O=C(Nc1ccc2c(Nc3ccc(Cl)nc3)nccc2c1)C1(CO)CC1 [Example 401, N-(1-((6-chloropyridin-3-yl)amino)isoquinolin-6-yl)-1-(hydroxymethyl)cyclopropane-1-carboxamide] | ≥ 30000
20 | FC(F)(F)CNc1cnc(Nc2ccc(Cl)nc2)c2[nH]ccc12 [Example 402, NF-(6-chloropyridin-3-yl)-N^4-(2,2,2-trifluoroethyl)-1H-pyrrolo[2,3-c]pyridine-4,7-diamine] | 1000 to 10000
21 | Clc1ccc(Nc2ncc(NCc3ccccc3)c3cc[nH]c23)cn1 [Example 403, N^4-benzyl-N^7-(6-chloropyridin-3-yl)-1H-pyrrolo[2,3-c]pyridine-4,7-diamine] | 10000 to 30000
22 | FC1(F)CC1COc1ccc2c(Nc3ccc(Cl)nc3)nccc2c1 (centres unmarked) [Example 404, N-(6-chloropyridin-3-yl)-6-((2,2-difluorocyclopropyl)methoxy)isoquinolin-1-amine] | < 1000

Row | SMILES | EC50 [nM]
23 | CC1(C)CC[C@@H](COc2ccc3c(Nc4ccc(Cl)nc4)nccc3c2)O1 [Example 405, (S)-N-(6-chloropyridin-3-yl)-6-((5,5-dimethyltetrahydrofuran-2-yl)methoxy)isoquinolin-1-amine] | 1000 to 10000
24 | CC1(COc2ccc3c(Nc4ccc(Cl)nc4)nccc3c2)CCCO1 (centres unmarked) [Example 406, N-(6-chloropyridin-3-yl)-6-((2-methyltetrahydrofuran-2-yl)methoxy)isoquinolin-1-amine] | < 1000
25 | FC1(F)CC(COc2ccc3c(Nc4ccc(Cl)nc4)nccc3c2)C1 [Example 407, N-(6-chloropyridin-3-yl)-6-((3,3-difluorocyclobutyl)methoxy)isoquinolin-1-amine] | 1000 to 10000
26 | F[C@H]1C[C@H](Oc2ccc3c(Nc4ccc(Cl)nc4)nccc3c2)C1 [Example 408, N-(6-chloropyridin-3-yl)-6-((1r,3r)-3-fluorocyclobutoxy)isoquinolin-1-amine] | 1000 to 10000
27 | FC(F)C(F)(F)COc1ccc2c(Nc3ccc(Cl)nc3)nccc2c1 [Example 409, N-(6-chloropyridin-3-yl)-6-(2,2,3,3-tetrafluoropropoxy)isoquinolin-1-amine] | 1000 to 10000
28 | COc1ccc2c(Nc3ccc(Cl)nc3)ncc(OC)c2c1 [Example 410, N-(6-chloropyridin-3-yl)-4,6-dimethoxyisoquinolin-1-amine] | 10000 to 30000
29 | Clc1ccc(Nc2nccc3cc(OC4CCC4)ccc23)cn1 [Example 411, N-(6-chloropyridin-3-yl)-6-cyclobutoxyisoquinolin-1-amine] | 1000 to 10000
30 | FC1(F)CC(Oc2ccc3c(Nc4ccc(Cl)nc4)nccc3c2)C1 [Example 412, N-(6-chloropyridin-3-yl)-6-(3,3-difluorocyclobutoxy)isoquinolin-1-amine] | 1000 to 10000
31 | F[C@@H]1C[C@H]1COc1ccc2c(Nc3ccc(Cl)nc3)nccc2c1 [Example 413, N-(6-chloropyridin-3-yl)-6-(((1S,2R)-2-fluorocyclopropyl)methoxy)isoquinolin-1-amine] | 1000 to 10000
32 | F[C@H]1C[C@H]1COc1ccc2c(Nc3ccc(Cl)nc3)nccc2c1 [Example 414, N-(6-chloropyridin-3-yl)-6-(((1S,2S)-2-fluorocyclopropyl)methoxy)isoquinolin-1-amine] | 1000 to 10000
33 | Clc1ccc(Nc2nccc3cc(OCC4CCOC4)ccc23)cn1 (centres unmarked) [Example 415, N-(6-chloropyridin-3-yl)-6-((tetrahydrofuran-3-yl)methoxy)isoquinolin-1-amine] | < 1000
34 | CC1(C)CC[C@H](COc2ccc3c(Nc4ccc(Cl)nc4)nccc3c2)O1 [Example 416, (R)-N-(6-chloropyridin-3-yl)-6-((5,5-dimethyltetrahydrofuran-2-yl)methoxy)isoquinolin-1-amine] | 1000 to 10000
35 | FC(F)COc1ccc2c(Nc3ccc(Cl)nc3)nccc2c1 [Example 417, N-(6-chloropyridin-3-yl)-6-(2,2-difluoroethoxy)isoquinolin-1-amine] | 1000 to 10000
36 | COCCNC(=O)c1ccc2c(Nc3ccc(Cl)nc3)nccc2c1 [Example 418] | 10000 to 30000
37 | O=C(NCC1CC1)c1ccc2c(Nc3ccc(Cl)nc3)nccc2c1 [Example 419, 1-((6-chloropyridin-3-yl)amino)-N-(cyclopropylmethyl)isoquinoline-6-carboxamide] | 10000 to 30000
38 | CC1(C)CCC(COc2ccc3c(Nc4cnc(Cl)nc4)nccc3c2)O1 (centres unmarked) [Example 420] | 1000 to 10000
39 | Clc1ccc(Nc2nccc3cc(N4CCCC4)ccc23)cn1 [Example 421, N-(6-chloropyridin-3-yl)-6-(pyrrolidin-1-yl)isoquinolin-1-amine] | 1000 to 10000
40 | Cn1nccc1-c1ccc2c(Nc3ccc(Cl)nc3)nccc2c1 [Example 422, N-(6-chloropyridin-3-yl)-6-(1-methyl-1H-pyrazol-5-yl)isoquinolin-1-amine] | 1000 to 10000
41 | Clc1ccc(Nc2nccc3cc(-c4cncnc4)ccc23)cn1 [Example 423, N-(6-chloropyridin-3-yl)-6-(pyrimidin-5-yl)isoquinolin-1-amine] | 10000 to 30000
42 | Clc1ccc(Nc2nccc3cc(-c4cc[nH]n4)ccc23)cn1 [Example 424, N-(6-chloropyridin-3-yl)-6-(1H-pyrazol-3-yl)isoquinolin-1-amine] | 1000 to 10000
43 | Clc1ccc(Nc2nccc3cc(Cn4nccn4)ccc23)cn1 [Example 425, 6-((2H-1,2,3-triazol-2-yl)methyl)-N-(6-chloropyridin-3-yl)isoquinolin-1-amine] | 1000 to 10000
44 | Clc1ccc(Nc2nccc3cc(Cc4ccccn4)ccc23)cn1 [Example 426, N-(6-chloropyridin-3-yl)-6-(pyridin-2-ylmethyl)isoquinolin-1-amine] | 1000 to 10000
